Experimental data from patent US8362072B2, “BRCA1-based breast or ovarian cancer treatment agents and methods of use” (University of Kansas, priority 2007, dated 2013).

Columns and labels:
human BRCA1 promoter = assay: BRCA1-luciferase reporter assay (Steady-Glo) in stably transfected MCF7 cells; format: cell-based; details: Homo sapiens, MCF7-BRCA1-luciferase cells, dilution series; for EC50: MCF7, 48 h; for EC90: 48 hours
Experimental: Hygromycin selected MCF7 cells were seeded in 384-well tissue culture plates. The first two columns of each plate were empty so as to include established positive and negative controls. Each of the remaining 352 wells contained a compound to be screened. MCF7 cells were incubated with the compounds for 48 hours. Luciferase activity was measured using the Steady Glo Luciferase Assay System (Promega). Briefly, 5×10^6 MCF7 cells were transfected with […] of purified pGL4.14 containing the human BRCA1 promoter (pGL4.14-hBRCA) with Effectene as per manufacturers protocol (Qiagen). Stable transfectants were selected with […] Hygromicin B. 1×10^5 or 2×10^5 stable transfectants were tested for luciferase activity with the Steady-Glo Luciferase Assay System (Promega).
Hygromycin selected MCF-7 cells (e.g., MCF7 clone pGL4.14-hBRCA1.3) stably transfected with the human BRCA1-luciferase reporter construct (e.g., pGL4.14-hBRCA1.3) were seeded in 384-well white tissue culture plates (Becton Dickenson, San Diego, Calif.) at 1×10^4 cells/well. These cells were then stimulated with indicated concentrations of genistein (Sigma-Aldrich, St. Louis, Mo.) for 0, 6, 9, 24 and 48 hours. Luciferase activity was measured using the Steady Glo Luciferase Assay System (Promega). The data shown in FIG. 3A is representative of 3 individual experiments.
Two different chemical libraries were screened for the ability to enhance BRCA1 gene expression. To examine the effects of each compound on BRCA1 expression, the human BRCA1 promoter was cloned and inserted upstream of the firefly luciferase gene in the plasmid pGL4.14 (BRCA1-Luc) (Promega), as described above. The ER positive human breast cancer cell line, MCF7, was transfected and stable transfectants were selected with hygromycin.
Briefly, compounds were plated in a 384 well plate in a total volume of 20 μl. A ten point dilution series was used at concentrations—100 µM, 10 μM, 1 μM, 100 nM, 10 nM, 1 nM, 0.1 nM, 0.01 nM, 0.0001 nM, 0 (DMSO vehicle only). A second dilution series of 100 μM, 32.5 μM, […], 3.6 μM, 1.2 μM, 400 nM, 132.2 nM, 45 nM, 14.8 nM, 5 nM, and 1.65 nM was also used. MCF7-BRCA1-luciferase cells were added to the compounds at a concentration of 1×10^4 cells/well in a volume of 25 μl. The 384 well plates, containing the compounds+cells, were then incubated at 37° C. for 48 hours. After 48 hours, luciferase activity was measured with the Steady-Glo® Luciferase Assay System (Promega, Madison, Wis.).

BRCA1 protein = BRCA1 protein expression in MCF7 cells by Western blot; format: cell-based, human; details: 48 hours, compared to DMSO
Experimental: Compounds 29 and 30 were studied for BRCA1 and actin (e.g., housekeeping gene for normalization) protein expression. Briefly, MCF7 cells (2×10^6) in 2 ml MEM were plated in a 6 well tissue culture plate and were either left nonstimulated or treated with DMSO (vehicle control), […] Genistein, or 3 different concentrations of indicated test compound—3.65 μM, […], 32.5 μM. Following incubation at 37° C. for 48 hours, the media was removed and the cells were washed 1× with 500 μl of ice cold PBS. Another 500 μl of ice cold PBS was then added and the cells were scraped off the well and transferred to a microcentrifuge tube. To ensure all cells were removed from the well, an additional […] of ice cold PBS was added to the well and any remaining cells were combined with the initial cell harvest into the microcentrifuge tube. The cells were then pelleted by centrifugation for 5 min at 3000 rpm, 4° C. The supernate was removed and the pellet was then lysed in 150 μl of ice cold RIPA buffer+1× protease inhibitors, on ice for 30 minutes, vortexing occasionally. The cellular debris was then removed by centrifugation for 20 minutes at 11,000 rpm, 4° C. The remaining supernate, containing the extracted proteins, was then transferred to a microcentrifuge tube and quantified using the Bio-Rad DC assay. 100 μg of protein+1×SDS-PAGE sample buffer was loaded onto an 8% Tris glycine gel. The proteins were separated in a tris glycine running buffer at 125 volts for 90 minutes. The proteins were then transferred out of the gel onto PVDF in an overnight transfer with 20% methanol at 35 volts, 4° C. The PVDF membrane was then blocked with 5% milk/PBST (0.1%) for 1 hour at room temperature (RT). BRCA1 protein was detected using anti-BRCA1 (Ab-1, EMD Biosciences) at a 1:250 dilution in 3% milk/PBST, overnight at 4° C. […] To monitor equal protein loading, actin was detected using anti-actin at a 1:200,000 dilution in 5% milk/PBST for 1 hr at RT. […] Chemiluminescence was detected using the SuperSignal West Femto kit made by Pierce Biotechnology and the UVP imaging center. […]

BRCA1 RNA = BRCA1 RNA expression in MCF7 cells by qRT-PCR (TaqMan, 18S normalised); format: cell-based, human; details: 48 hours, 3.65-32.5 μM, compared to DMSO and genistein
Experimental: Compounds 29 and 30 were studied for BRCA1 and 18S (e.g., housekeeping gene for normalization) RNA expression. Briefly, MCF7 cells (2×10^6) in 2 ml MEM were plated in a 6 well tissue culture plate and were either left nonstimulated or treated with DMSO (vehicle control), 10 μM Genistein, or 3 different concentrations of indicated test compound—3.65 μM, 10.8 μM, 32.5 μM. Following incubation at 37° C. for 48 hours, the media was removed and RNA was extracted per manufacturer's protocol using the RNeasy Plus RNA extraction kit made by Qiagen. Complementary DNA (cDNA) was generated per manufacturer's protocol from 1000 ng extracted RNA in a 60 μl volume using the High Capacity cDNA kit made by Applied Biosystems. Gene expression of BRCA1 and 18S was detected with the TaqMan Gene Expression assay kit made by Applied Biosystems. […] The […] reaction was run on either the ABI real time system 7500 or 7000 (see, Analysis of Relative Gene Expression Data Using Real-Time Quantitative PCR and the 2^−ΔΔCT Method. Kenneth J. Livak^a and Thomas D. Schmittgen^b, 1. ^a Applied Biosystems, Foster City, Calif., 94404 ^b Department of Pharmaceutical Sciences, College of Pharmacy, Washington State University, Pullman, Wash., 99164-6534. Methods, Volume 25, Issue 4, December 2001, Pages 402-408).

Row | SMILES | EC50 (human BRCA1 promoter) [µM] | EC90 (human BRCA1 promoter) [µM] | BRCA1 protein expression (BRCA1 protein) | BRCA1 RNA expression (BRCA1 RNA)
1 | Cc1ccc(OCC(=O)O/N=C(\N)c2ccccn2)c(C)c1 [Cmpd 29] | 8.49 | 91.8 | increase endogenous BRCA1 | increase BRCA1 RNA expression
2 | CCc1ccc(OCC(=O)O/N=C(\N)c2ccncc2)c(C)c1 [Cmpd 30] | 4.13 | 55.4 | increase endogenous BRCA1 | increase BRCA1 RNA expression
